# In ChEMBL document CHEMBL1136325, “Synthesis and biological evaluation of GABA derivatives able to cross the blood-brain barrier in rats” (2003):
# Activity calls are given as the source filed them. The rule behind the calls is not given here.
# Experiments:
# Rattus norvegicus [1] = assay: In vivo pentobarbital (30 mg/kg ip)-induced hypnosis in rats after intracerebroventricular administration at a dose of 3.90 uL; type: functional
# Rattus norvegicus [2] = assay: In vivo pentobarbital (30 mg/kg ip)-induced hypnosis in rats after intracerebroventricular administration at a dose of 1.95uL; type: functional
# Cavia porcellus [3] = species on record: Cavia porcellus; assay: Effect on ileal tone in guinea pig up to 100 uM; No effect; type: functional
# Rattus norvegicus [4] = assay: In vivo pentobarbital (30 mg/kg ip)-induced hypnosis in rats after intracerebroventricular administration at a dose of 7.80 uL; type: functional
# Rattus norvegicus [5] = assay: In vivo pentobarbital (30 mg/kg ip)-induced hypnosis in rats after iv administration at a dose of 92 umol; type: functional
# Rattus norvegicus [6] = assay: In vivo pentobarbital (30 mg/kg ip)-induced hypnosis in rats after intracerebroventricular administration at a dose of 7.80 uL by pretreatment with atropine (1.0 mg/kg iv); type: functional
# Cavia porcellus [7] = species on record: Cavia porcellus; assay: Inhibitory activity against L-glutamate decarboxylase treated from 0.01 to 10 mM concentrations of the compound; Inactive
# Rattus norvegicus [8] = assay: In vivo pentobarbital (30 mg/kg ip)-induced hypnosis in rats after iv administration at a dose of 184 umol; type: functional
# Rattus norvegicus [9] = assay: In vivo pentobarbital (30 mg/kg ip)-induced hypnosis in rats after intracerebroventricular administration at a dose of 15.6 uL by pretreatment with atropine (1.0 mg/kg iv); type: functional
# Rattus norvegicus [10] = assay: In vivo pentobarbital (30 mg/kg ip)-induced hypnosis in rats after iv administration at a dose of 368 umol; type: functional
# Rattus norvegicus [11] = assay: In vivo pentobarbital (30 mg/kg ip)-induced hypnosis in rats after intracerebroventricular administration at a dose of 15.6 uL; type: functional
# Cavia porcellus [12] = species on record: Cavia porcellus; assay: Inhibitory activity against L-glutamic decarboxylase treated from 0.01 to 10 mM concentrations of the compound; Inactive
# [13] = target: GABA-B receptor (Homo sapiens) (UniProt Q9UBS5+O75899); assay: Antagonistic potency against Gamma-aminobutyric acid type B receptor of guinea pig ileum; type: functional, tissue-based; conditions: Cavia porcellus, target entry is the homologue from another species
# Rattus norvegicus [14] = assay: In vivo pentobarbital (30 mg/kg ip)-induced hypnosis in rats; Moderate dyspnea; type: functional, organism-based
# Rattus norvegicus [15] = assay: In vivo pentobarbital (30 mg/kg ip)-induced hypnosis in rats after iv administration at a dose of 23 umol; type: functional
# Rattus norvegicus [16] = assay: In vivo pentobarbital (30 mg/kg ip)-induced hypnosis in rats after iv administration at a dose of 46 umol; type: functional
Structure (SMILES),Hypnosis duration (Rattus norvegicus [1]) [min],Ileal activity (Cavia porcellus [3]),Hypnosis duration (Rattus norvegicus [5]) [min],Hypnosis duration (Rattus norvegicus [8]) [min],Hypnosis duration (Rattus norvegicus [15]) [min],Hypnosis duration (Rattus norvegicus [16]) [min],also measured
CN1C=CC(CC2C=CN(C)C=C2C(=O)NCCCC(=O)[O-])C(C(=O)NCCCC(=O)[O-])=C1.[Na+].[Na+] (centres undefined),142,inactive,149,80,,,Hypnosis duration (Rattus norvegicus [2]): 147 min; Hypnosis duration (Rattus norvegicus [4]): 60 min; Hypnosis duration (Rattus norvegicus [6]): 184 min; Activity (Cavia porcellus [7]): inactive
COS(=O)(=O)[O-].C[n+]1cccc(C(=O)NCCCC(=O)O)c1,,inactive,,,,,Hypnosis duration (Rattus norvegicus [9]): 158 min; Hypnosis duration (Rattus norvegicus [10]): 153 min; Hypnosis duration (Rattus norvegicus [11]): 100 min; Activity (Cavia porcellus [12]): inactive
CN1C=CC(CC2C=CN(C)C=C2C(=O)NCCCC(=O)OCc2ccccc2)C(C(=O)NCCCC(=O)OCc2ccccc2)=C1 (centres undefined),,,,,206,257,Effect (Cavia porcellus [3]): inactive; pD2 [13]: 5.59; Adverse effect (Rattus norvegicus [14]): Moderate dyspnea
C[n+]1cccc(C(=O)NCCCC(=O)OCc2ccccc2)c1.[I-],,,194,,156,207,Hypnosis duration (Rattus norvegicus [14]): Moderate dyspnea
NCCCC(=O)O [GAMMA-AMINOBUTYRIC ACID],188,,,128,,,
